Results from patent publication US9309213B2, “C-3 substituted bicyclooctane based HIV protease inhibitors” (Purdue Research Foundation, priority 2011, dated 2016).
Like-named read-outs stand apart in the source and are kept apart here.

Columns and labels:
Assay type in all cases: cell-based
[1] = test system: HIV-1MDR/TM; assay: microbe, parasite or virus in culture; conditions: for EC50 / fold-change in EC50: Table 4; for EC50: HIV-1MDR/TM (X4), PHA-PBMs, p24 Gag; for fold-change in EC50: HIV-1MDR/TM compared to wild-type HIV-1ERS104pre
[2] = test system: HIV-1MDR/C; assay: microbe, parasite or virus in culture; conditions: for EC50 / fold-change in EC50: Table 4; for EC50: HIV-1MDR/C (X4), PHA-PBMs, p24 Gag; for fold-change in EC50: HIV-1MDR/C compared to wild-type HIV-1ERS104pre
[3] = test system: multidrug-resistant HIV-1 variants; assay: Antiviral activity against the panel of multidrug-resistant HIV-1 variants
Protocol: Inhibitors 22 with a 3(S)-hydroxyl group and 25 with a 3(R)-hydroxyl group on the Cp-THF ligand were tested against a panel of multidrug-resistant HIV-1 variants. […] The contrast in antiviral activity of 22 compared to 25 underlines the importance of the stereochemistry at the 3-position of the Cp-THF ligand.
Such a stark contrast in antiviral activities underlines the importance of the stereochemistry at the 3-position of the P2 ligand.

[4] = test system: HIV-1ERS104pre (wild type); assay: Antiviral assay in PHA-PBMs, inhibition of p24 Gag protein production, wild-type isolate
[5] = test system: HIV-1MDR/B; assay: microbe, parasite or virus in culture; conditions: for EC50 / fold-change in EC50: Table 4; for EC50: HIV-1MDR/B (X4), PHA-PBMs, p24 Gag; for fold-change in EC50: HIV-1MDR/B compared to wild-type HIV-1ERS104pre
[6] = test system: HIV-1MDR/G; assay: microbe, parasite or virus in culture; conditions: for EC50 / fold-change in EC50: Table 4; for EC50: HIV-1MDR/G (X4), PHA-PBMs, p24 Gag; for fold-change in EC50: HIV-1MDR/G compared to wild-type HIV-1ERS104pre
[7] = test system: HIV-1LAI; assay: In vitro antiviral assay, MT-2 cells exposed to HIV-1LAI, MTT assay
[8] = Human immunodeficiency virus 1, read-out: IC50 ± SDs

SMILES	EC50 [1] [nM]	fold-change in EC50 [1]	EC50 [2] [nM]	fold-change in EC50 [2]	EC50 [5] [nM]	fold-change in EC50 [5]	EC50 [6] [nM]	fold-change in EC50 [6]	further results
COC(=O)N[C@@H]1CO[C@@H]2C[C@H](OC(=O)N[C@@H](Cc3ccccc3)[C@H](O)CN(CC(C)C)S(=O)(=O)c3ccc(OC)cc3)C[C@H]12 [Inhibitor 19l]	74 ± 6	3	30 ± 6	1	75 ± 11	3	39 ± 1	1	fold changes in EC50 ([3]; all MDR HIV-1 viruses versus wild type): < 3; EC50 ([4]; Table 4, HIV-1ERS104pre (wt), PHA-PBMs, p24 Gag, read-out: EC50 ± SDs): 29 ± 2 nM
COC(=O)N[C@H]1CO[C@@H]2C[C@H](OC(=O)N[C@@H](Cc3ccccc3)[C@H](O)CN(CC(C)C)S(=O)(=O)c3ccc(OC)cc3)C[C@H]12 [Inhibitor 19m]	24 ± 4	8	15 ± 5	5	18 ± 3	6	20 ± 5	7	EC50 ([3]; range over the strains): 15 to 24 nM; EC50 ([4]; wild-type HIV-1ERS104pre, read-out: EC50): 3 nM
COc1ccc(S(=O)(=O)N(CC(C)C)C[C@@H](O)[C@H](Cc2ccccc2)NC(=O)O[C@@H]2C[C@@H]3[C@@H](O)CO[C@@H]3C2)cc1 [Inhibitor 25]									IC50 [1, 8]: 3.1 ± 2 nM; IC50 [2, 8]: 22 ± 3 nM; IC50 ([7]; Human immunodeficiency virus 1, MT2, Table 1, MT-2 cells, 100 TCID50s of HIV-1LAI, MTT assay, means of at least two experiments): 2.9 nM; IC50 ([7]; Human immunodeficiency virus 1, MT2, read-out: antiviral IC50): 2.9 nM; IC50 ([3]; Human immunodeficiency virus 1, read-out: IC50 values against various multidrug-resistant HIV-1 strains): 2.9 to 29 nM; IC50 ([4]; Human immunodeficiency virus 1): 2.9 nM; IC50 [4, 8]: 2.9 ± 0.8 nM; IC50 [5, 8]: 29 ± 7 nM; IC50 [6, 8]: 4.5 ± 0.7 nM
